Test results taken from article PMC6225228, “Design, Synthesis and Evaluation of N-pyrazinylbenzamides as Potential Antimycobacterial Agents” (Molecules : A Journal of Synthetic Chemistry and Natural …, 2018).
Converted amounts (≈) assume the structure as drawn. Where two headings read alike, the source gives them in different places.

Columns and labels:
[1] = tested on: Pseudomonas aeruginosa CCM 1961; assay: Antibacterial microdilution broth, PA; assay type: cell-based; details: Pseudomonas aeruginosa, read-out: MIC PA
[2] = tested on: M. avium ssp. avium CNCTC My 80/72 (ATCC 15769); assay: Antimycobacterial microdilution MABA, M. avium; assay type: cell-based, Mycobacterium avium; details: for M. avium ATCC 15769 MIC: Middlebrook 7H9 with OADC, pH 6.6, MABA; for MIC: Mycobacterium avium, ATCC15769, pH 6.6, read-out: M. avium ATCC 15769 MIC
[3] = tested on: Mycobacterium tuberculosis H37Rv CNCTC My 331/88 (ATCC 27294); assay: Antimycobacterial microdilution MABA, M. tuberculosis; assay type: cell-based; details: for MIC: Mycobacterium tuberculosis, read-out: Mtb H37Rv ATCC 27294 MIC, Middlebrook 7H9 with OADC growth supplement, pH = 6.6, MABA
[4] = tested on: Lichtheimia corymbifera 272; assay: Antifungal microdilution broth, LC; assay type: cell-based; details: read-out: MIC LC
[5] = tested on: Staphylococcus aureus CCM 4516/08; assay: Antibacterial microdilution broth, SA; assay type: cell-based
[6] = tested on: Candida albicans ATCC 44859; assay: Antifungal microdilution broth, CA; assay type: cell-based; details: Candida albicans, read-out: MIC CA
[7] = tested on: Aspergillus fumigatus 231; assay: Antifungal microdilution broth, AF; assay type: cell-based; details: read-out: MIC AF
[8] = tested on: Trichophyton interdigitale 445; assay: Antifungal microdilution broth, TI; assay type: cell-based; details: read-out: MIC TI
[9] = tested on: Escherichia coli CCM 4517; assay: Antibacterial microdilution broth, EC; assay type: cell-based; details: Escherichia coli, read-out: MIC EC
Candida tropicalis 156 = assay: Antifungal microdilution broth, CT; assay type: cell-based; details: read-out: MIC CT
Candida glabrata 20/I = assay: Antifungal microdilution broth, CG; assay type: cell-based; details: Nakaseomyces glabratus, 20/I, read-out: MIC CG
[10] = tested on: Mycobacterium smegmatis CCM 4622 (ATCC 607); assay: Antimycobacterial microdilution, M. smegmatis; assay type: cell-based; details: Mycolicibacterium smegmatis, read-out: M. smeg. ATCC 607 MIC
[11] = tested on: Staphylococcus epidermidis H 6966/08; assay: Antibacterial microdilution broth, SE; assay type: cell-based; details: read-out: MIC SE
Trichosporon asahii 1188 = assay: Antifungal microdilution broth, TA; assay type: cell-based; details: read-out: MIC TA
Candida krusei E28 = assay: Antifungal microdilution broth, CK; assay type: cell-based; details: Pichia kudriavzevii, read-out: MIC CK
[12] = tested on: Staphylococcus aureus H 5996/08 methicillin resistant; assay: microbe, parasite or virus in culture; assay type: cell-based; details: for MIC: Staphylococcus aureus, MRSA, read-out: MIC MRSA
[13] = tested on: M. kansasii CNCTC My 235/80 (ATCC 12478); assay: Antimycobacterial microdilution MABA, M. kansasii; assay type: cell-based, Mycobacterium kansasii; details: for M. kans. ATCC 12478 MIC: Middlebrook 7H9 with OADC, pH 6.6, MABA; for MIC: Mycobacterium kansasii, ATCC12478, pH 6.6, read-out: M. kans. ATCC 12478 MIC, Middlebrook 7H9 with OADC, pH 6.6, MABA
[14] = tested on: Enterococcus sp. J 14365/08; assay: Antibacterial microdilution broth, EF; assay type: cell-based; details: Enterococcus, read-out: MIC EF
[15] = Lichtheimia corymbifera, 272, 24 h
[16] = Lichtheimia corymbifera, 272, 48 h
[17] = Staphylococcus aureus, CCM4516, 24 h, read-out: MIC SA, 24 h
[18] = Staphylococcus aureus, CCM4516, 48 h, read-out: MIC SA, 48 h
[19] = Aspergillus fumigatus, 231, 24 h
[20] = Aspergillus fumigatus, 231, 48 h
[21] = Trichophyton interdigitale, 445, 72 h
[22] = Trichophyton interdigitale, 445, 120 h
[23] = Staphylococcus epidermidis, H6966/08, 24 h
[24] = Staphylococcus epidermidis, H6966/08, 48 h
[25] = Trichosporon asahii, 1188, 24 h
[26] = Trichosporon asahii, 1188, 48 h

## CC(=O)Oc1cccc(C(=O)Nc2cnc(Cl)cn2)c1 [Compound 2c-Ac]
[1]; CCM1961, 72 h
  MIC: > 125 µM
[1]; CCM1961, 120 h
  MIC: > 125 µM
[2]
  M. avium ATCC 15769 MIC: >100 µg/mL
  MIC: > 100 µg/mL
[3]; Middlebrook 7H9 with OADC growth supplement, pH = 6.6, MABA
  Mtb H37Rv ATCC 27294 MIC: >100 µg/mL
[3]
  MIC: > 100 µg/mL
other
  melting point: 184.1 to 184.6 °C
[4]; [15]
  MIC: > 125 µM
[4]; [16]
  MIC: > 125 µM
[5]; 24 h, read-out: MIC SA
  MIC: >125 µM
[5]; 48 h, read-out: MIC SA
  MIC: >125 µM
[5]; [17]
  MIC: > 125 µM
[5]; [18]
  MIC: > 125 µM
[6]; ATCC44859, 24 h
  MIC: > 125 µM
[6]; ATCC44859, 48 h
  MIC: > 125 µM
[7]; [19]
  MIC: > 125 µM
[7]; [20]
  MIC: > 125 µM
[8]; [21]
  MIC: > 125 µM
[8]; [22]
  MIC: > 125 µM
[9]; CCM4517, 24 h
  MIC: > 125 µM
[9]; CCM4517, 48 h
  MIC: > 125 µM
Candida tropicalis 156; Candida tropicalis, 156, 24 h
  MIC: > 125 µM
Candida tropicalis 156; Candida tropicalis, 156, 48 h
  MIC: > 125 µM
Candida glabrata 20/I; 24 h
  MIC: > 125 µM
Candida glabrata 20/I; 48 h
  MIC: > 125 µM
[10]
  MIC: 250 µg/mL (≈ 857 µM)
[11]; 24 h
  MIC: >125 µM
[11]; 48 h
  MIC: >125 µM
[11]; [23]
  MIC: > 125 µM
[11]; [24]
  MIC: > 125 µM
Trichosporon asahii 1188; [25]
  MIC: > 125 µM
Trichosporon asahii 1188; [26]
  MIC: > 125 µM
Candida krusei E28; E28, 24 h
  MIC: > 125 µM
Candida krusei E28; E28, 48 h
  MIC: > 125 µM
[12]; 24 h
  MIC MRSA: >125 µM
  MIC: > 125 µM
[12]; 48 h
  MIC MRSA: >125 µM
  MIC: > 125 µM
[13]
  M. kans. ATCC 12478 MIC: >100 µg/mL
  MIC: > 100 µg/mL
[14]; SP.J14365/08, 24 h
  MIC: > 125 µM
[14]; SP.J14365/08, 48 h
  MIC: > 125 µM

## O=C(Nc1cnccn1)c1ccccc1 [Compound 1a]
[1]; CCM1961, 72 h
  MIC: > 500 µM
[1]; CCM1961, 120 h
  MIC: > 500 µM
[2]
  M. avium ATCC 15769 MIC: >100 µg/mL
  MIC: > 100 µg/mL
[3]
  MIC: 100 µg/mL (≈ 502 µM)
other
  melting point: 171.2 to 172 °C
[4]; [15]
  MIC: > 500 µM
[4]; [16]
  MIC: > 500 µM
[5]; [17]
  MIC: > 500 µM
[5]; [18]
  MIC: > 500 µM
[6]; ATCC44859, 24 h
  MIC: 500 µM (≈ 99.6 µg/mL)
[6]; ATCC44859, 48 h
  MIC: > 500 µM
[7]; [19]
  MIC: > 500 µM
[7]; [20]
  MIC: > 500 µM
[8]; [21]
  MIC: > 500 µM
[8]; [22]
  MIC: > 500 µM
[9]; CCM4517, 24 h
  MIC: > 500 µM
[9]; CCM4517, 48 h
  MIC: > 500 µM
Candida tropicalis 156; Candida tropicalis, 156, 24 h
  MIC: > 500 µM
Candida tropicalis 156; Candida tropicalis, 156, 48 h
  MIC: > 500 µM
Candida glabrata 20/I; 24 h
  MIC: > 500 µM
Candida glabrata 20/I; 48 h
  MIC: > 500 µM
[10]
  MIC: ≥ 500 µg/mL
[11]; [23]
  MIC: > 500 µM
[11]; [24]
  MIC: > 500 µM
Trichosporon asahii 1188; [25]
  MIC: > 500 µM
Trichosporon asahii 1188; [26]
  MIC: > 500 µM
Candida krusei E28; E28, 24 h
  MIC: > 500 µM
Candida krusei E28; E28, 48 h
  MIC: > 500 µM
[12]; 24 h
  MIC: > 500 µM
[12]; 48 h
  MIC: > 500 µM
[13]
  M. kans. ATCC 12478 MIC: >100 µg/mL
  MIC: > 100 µg/mL
[14]; SP.J14365/08, 24 h
  MIC: > 500 µM
[14]; SP.J14365/08, 48 h
  MIC: > 500 µM
